For data set [1] the following is noted: cited from earlier work.
Data set [2] concerns C57/B6 mice exposed to TBI. The data set is described as follows: Silver staining for axon degeneration after TBI. Type of data set: in vivo. The following applies: 3 weeks after TBI, 5 mg/kg twice daily started 24 hours after injury; 5 mg/kg. Here is the method:
8 week old C57/B6 mice were exposed to sham-injury or TBI. Twice daily treatment with 5 mg/kg (+)-SW033291, 5 mg/kg (−)-SW033291, or vehicle was started 24 hours after injury and continued throughout the duration of the experiment. Animals were sacrificed by transcardial perfusion 3 weeks after TBI or sham-injury, and fixed brains were processed for silver staining. […] Individual mouse data points are shown on the graph. Data was analyzed using two-way repeated measures ANOVA; * p<0.05, ** p<0.01. All data is mean±SEM.

In the next data set the test system is neurons. Conditions: in vitro, activation of the EP2 receptors; cited from earlier work.

Where two headings read alike, the source gives them in different places.

For the compound `CCCCC[C@H](O)/C=C/[C@H]1[C@H](O)CC(=O)[C@@H]1C/C=C\CCCC(=O)O` [PGE2, prostaglandin E2], the results for the half-life entry in data set [1] (following intravenous injection) and in data set [1] (in the circulatory system) were “less than 1 min” and “approximately 30 sec”, respectively. For `CCCC[S+]([O-])c1sc2nc(-c3cccs3)cc(-c3ccccc3)c2c1N` (single isomer, unassigned; (-)) [(−)-SW033291, reference compound], the “silver staining (axon degeneration)” value in data set [2] was “protection was not noted”. `CCCC1([C@H](O)C/C=C/[C@H]2[C@H](O)CC(=O)[C@@H]2CCCCCCC(=O)OC)CCC1` [butaprost]: the “protection of neurons from amyloid peptide neurotoxicity” value in the data set on neurons was “protected neurons from amyloid 0-peptide neurotoxicity in vitro”.

The values are drawn from patent US20230310390A1, “INHIBITORS OF SHORT-CHAIN DEHYDROGENASE ACTIVITY FOR TREATING NEURODEGENERATION” (CASE WESTERN RESERVE UNIVERSITY, priority 2020, published 2023).
